Measurements from ChEMBL document CHEMBL1133669 (J Med Chem, 2000).

Key:
[1] = biological target: T1, Carbonic anhydrase 4 (Bos taurus, UniProt Q95323)
T1 sequence (Q95323 whole entry): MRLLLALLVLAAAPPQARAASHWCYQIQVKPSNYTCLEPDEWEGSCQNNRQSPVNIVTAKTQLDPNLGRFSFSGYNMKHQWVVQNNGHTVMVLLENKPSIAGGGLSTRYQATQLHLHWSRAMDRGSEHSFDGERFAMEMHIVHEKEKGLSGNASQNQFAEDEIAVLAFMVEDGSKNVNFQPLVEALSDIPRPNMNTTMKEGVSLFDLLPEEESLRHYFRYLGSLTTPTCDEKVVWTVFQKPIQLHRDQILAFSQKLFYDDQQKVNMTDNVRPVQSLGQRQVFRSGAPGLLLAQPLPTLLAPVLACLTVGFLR
Description: Inhibitory activity against bovine carbonic anhydrase IV (CA4), isolated from bovine lung microsomes

[2] = biological target: Carbonic anhydrase 1 (Homo sapiens, UniProt P00915)
Carbonic anhydrase 1, sequence (P00915 whole entry): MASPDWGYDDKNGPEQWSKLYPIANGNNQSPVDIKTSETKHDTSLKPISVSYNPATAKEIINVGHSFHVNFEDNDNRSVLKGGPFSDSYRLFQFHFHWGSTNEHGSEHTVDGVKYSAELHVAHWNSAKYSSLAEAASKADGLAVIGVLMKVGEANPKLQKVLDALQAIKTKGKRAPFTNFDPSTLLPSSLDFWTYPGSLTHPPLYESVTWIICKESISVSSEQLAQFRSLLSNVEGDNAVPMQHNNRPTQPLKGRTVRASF
Description: Inhibitory activity against human carbonic anhydrase I (CA1)

[3] = tested on: Rattus norvegicus; experiment: Renal excretion of bicarbonate after administration of 5 mg/kg in rats.; type: functional, Kidney
[4] = tested on: Rattus norvegicus; experiment: Renal excretion of bicarbonate after administration of 4 mg/kg in rats.; type: functional, Kidney
[5] = species on record: Rattus norvegicus; settings: dose 10 mg/kg

Row | Compound | Ki [1] | Ki [2] | Bicarbonate level [3] | Bicarbonate level [4] | Bicarbonate level [5]
1 | CC(C)c1cc(-c2ccccc2)cc(C(C)C)[n+]1CC(=O)OCCOc1ccc2nc(S(N)(=O)=O)sc2c1 | 30 nM | 11 nM | – | – | –
2 | Cc1cc(-c2ccccc2)cc(C)[n+]1CC(=O)OCCc1ccc(S(N)(=O)=O)cc1 | 69 nM | 1100 nM | – | – | –
3 | CC(C)c1cc(-c2ccccc2)cc(C(C)C)[n+]1CC(=O)Nc1ccc(S(=O)(=O)Nc2nnc(S(N)(=O)=O)s2)cc1 | 10 nM | 14 nM | – | – | –
4 | CC(C)c1cc(-c2ccccc2)cc(C(C)C)[n+]1CC(=O)OCc1ccc(S(N)(=O)=O)cc1 | 120 nM | 1770 nM | – | – | –
5 | Cc1cc(C)[n+](CC(=O)Nc2ccc3nc(S(N)(=O)=O)sc3c2)c(C)c1 | 50 nM | 15 nM | – | – | –
6 | CCc1cc(-c2ccccc2)cc(CC)[n+]1CC(=O)Nc1ccc(S(=O)(=O)Nc2nnc(S(N)(=O)=O)s2)cc1 | 9 nM | 12 nM | – | – | –
7 | Cc1cc(-c2ccccc2)cc(C)[n+]1CC(=O)Nc1ccc(S(N)(=O)=O)cc1Br | 35 nM | 600 nM | – | – | –
8 | CCc1cc(-c2ccccc2)cc(CC)[n+]1CC(=O)Nc1cc(C(F)(F)F)c(S(N)(=O)=O)cc1S(N)(=O)=O | 33 nM | 310 nM | – | – | –
9 | CC(C)c1cc(-c2ccccc2)cc(C(C)C)[n+]1CC(=O)Oc1ccc2nc(S(N)(=O)=O)sc2c1 | 39 nM | 12 nM | – | – | –
10 | Cc1cc(-c2ccccc2)cc(C)[n+]1CC(=O)Nc1ccc(S(=O)(=O)/N=c2/sc(S(N)(=O)=O)nn2C)cc1 | 8 nM | 11 nM | – | – | –
11 | Cc1cc(-c2ccccc2)cc(C)[n+]1CC(=O)Nc1nnc(S(N)(=O)=O)s1.[O-][Cl+3]([O-])([O-])[O-] | 17 nM | 205 nM | 38 | – | –
12 | CCc1cc(-c2ccccc2)cc(CC)[n+]1CC(=O)OCc1ccc(S(N)(=O)=O)cc1 | 97 nM | 1700 nM | – | – | –
13 | Cc1cc(-c2ccccc2)cc(C)[n+]1CC(=O)Nc1nccc(Nc2ccc(S(N)(=O)=O)cc2)n1 | 50 nM | 35 nM | – | – | –
14 | Cc1cc(C)[n+](CC(=O)NCc2ccc(S(N)(=O)=O)cc2)c(C)c1 | 80 nM | 1500 nM | – | – | –
15 | CC(C)c1cc(-c2ccccc2)cc(C(C)C)[n+]1CC(=O)Nc1cc(C(F)(F)F)c(S(N)(=O)=O)cc1S(N)(=O)=O | 42 nM | 310 nM | – | – | –
16 | CC(C)c1cc(-c2ccccc2)cc(C(C)C)[n+]1CC(=O)NCc1ccc(S(N)(=O)=O)cc1 | 75 nM | 1450 nM | – | – | –
17 | CCc1cc(-c2ccccc2)cc(CC)[n+]1CC(=O)Nc1ccc(S(=O)(=O)/N=c2/sc(S(N)(=O)=O)nn2C)cc1.[O-][Cl+3]([O-])([O-])[O-] | 10 nM | 13 nM | – | 40 | –
18 | CC(C)c1cc(-c2ccccc2)cc(C(C)C)[n+]1CC(=O)Nc1ccc(S(N)(=O)=O)cc1Cl | 56 nM | 600 nM | – | – | –

Row | Compound | Ki [1] | Ki [2] | Bicarbonate level [3] | Bicarbonate level [4] | Bicarbonate level [5]
19 | Cc1cc(-c2ccccc2)cc(C)[n+]1CC(=O)Nc1cc(C(F)(F)F)c(S(N)(=O)=O)cc1S(N)(=O)=O | 33 nM | 300 nM | – | – | –
20 | Cc1cc(-c2ccccc2)cc(C)[n+]1CC(=O)/N=c1/sc(S(N)(=O)=O)nn1C | 16 nM | 200 nM | – | – | –
21 | Cc1cc(-c2ccccc2)cc(C)[n+]1CC(=O)Nc1ccc(S(N)(=O)=O)cc1Cl | 38 nM | 600 nM | – | – | –
22 | Cc1cc(-c2ccccc2)cc(C)[n+]1CC(=O)Nc1cc(Cl)c(S(N)(=O)=O)cc1S(N)(=O)=O | 30 nM | 350 nM | – | – | –
23 | CCc1cc(-c2ccccc2)cc(CC)[n+]1CC(=O)Nc1nnc(S(N)(=O)=O)s1 | 25 nM | 300 nM | – | – | –
24 | CC(C)c1cc(-c2ccccc2)cc(C(C)C)[n+]1CC(=O)/N=c1/sc(S(N)(=O)=O)nn1C.[O-][Cl+3]([O-])([O-])[O-] | 35 nM | 300 nM | 40 | – | –
25 | CCc1cc(-c2ccccc2)cc(CC)[n+]1CC(=O)NNc1ccc(S(N)(=O)=O)cc1 | 340 nM | 28000 nM | – | – | –
26 | Cc1cc(C)[n+](CC(=O)Nc2cc(Cl)c(S(N)(=O)=O)cc2S(N)(=O)=O)c(C)c1 | 64 nM | 360 nM | – | – | –
27 | CCc1cc(-c2ccccc2)cc(CC)[n+]1CC(=O)Nc1cc(Cl)c(S(N)(=O)=O)cc1S(N)(=O)=O | 36 nM | 350 nM | – | – | –
28 | Cc1cc(C)[n+](CC(=O)Nc2cc(C(F)(F)F)c(S(N)(=O)=O)cc2S(N)(=O)=O)c(C)c1 | 58 nM | 320 nM | – | – | –
29 | Cc1cc(-c2ccccc2)cc(C)[n+]1CC(=O)Nc1ccc2nc(S(N)(=O)=O)sc2c1 | 19 nM | 10 nM | – | – | –
30 | Cc1cc(C)[n+](CC(=O)OCc2ccc(S(N)(=O)=O)cc2)c(C)c1 | 140 nM | 1800 nM | – | – | –
31 | Cc1cc(C)[n+](CC(=O)Oc2ccc3nc(S(N)(=O)=O)sc3c2)c(C)c1 | 29 nM | 13 nM | – | – | –
32 | Cc1cc(C)[n+](CC(=O)Nc2ccc(S(N)(=O)=O)cc2F)c(C)c1 | 44 nM | 750 nM | – | – | –
33 | CC(C)c1cc(-c2ccccc2)cc(C(C)C)[n+]1CC(=O)Nc1ccc(S(=O)(=O)/N=c2/sc(S(N)(=O)=O)nn2C)cc1 | 10 nM | 15 nM | – | – | –
34 | Cc1cc(C)[n+](CC(=O)NCCC(=O)Nc2nnc(S(N)(=O)=O)s2)c(C)c1 | 18 nM | 43 nM | – | – | –
35 | NS(=O)(=O)c1nnc(NS(=O)(=O)c2ccccc2)s1 [BENZOLAMIDE] | – | – | – | – | 115
